Literature values as cited in patent US20220023237A1, “ADDITIVE AND/OR SYNERGISTIC COMBINATIONS OF METFORMIN WITH NUTRACEUTICALS FOR THE PREVENTION, INHIBITION AND TREATMENT OF SARS-COV-2 AND ASSOCIATED COVID-19” (priority 2020, published 2022).
Read-outs that look alike come from different tables or passages of the source.

Tests used:
[1] = test system: LPS-challenged macrophages; details: pre-incubated 6 h, 0 to 50 μM, then LPS 24 h
[2] = test system: Nrf2 (+/+) primary peritoneal macrophages
[3] = test system: BALB/c mice with LPS-induced ARDS
[4] = test system: mice challenged with endotoxin or live Escherichia coli; details: for concentration of IL-1α: controls 1187.0±278.64
[5] = test system: lipopolysaccharide-induced inflammatory reactions
[6] = test system: lipopolysaccharide-activated macrophages; details: electrophoretic mobility shift assay
[7] = test system: rats subjected to myocardial ischemia and reperfusion; details: EGCG 10 mg/kg intravenously, then 10 mg/kg/h
[8] = test system: mice
[9] = test system: C57BL6 mice; details: EGCG 10 mg/kg intraperitoneally, 72 h after CL2P
[10] = test system: macrophage foam cells; details: pretreatment with EGCG
[11] = test system: mice with LPS-induced ARDS
[12] = test system: mice with experimental colitis
[13] = test system: male Sprague-Dawley rats; details: EGCG 10 mg/kg intraperitoneally at 1 and 6 h after CL2P and every 12 h

Compound: C[S+]([O-])CCCCN=C=S (stereo not shown) [sulforaphane, 1-isothiocyanato-4-(methylsulfinyl)-butane]
- expression of NO and cytokines [1]: able to prevent
- HO-1 expression ([2]; LPS-stimulated Nrf2 (+/+) macrophages): significantly augmented
- LPS-stimulated mRNA expression, protein expression and production of TNF-alpha, IL-1beta, COX-2 and iNOS ([2]; pretreatment, Nrf2 (+/+) macrophages): potently inhibited
- Nrf2/antioxidant response element (ARE) pathway ([3]; pre-treatment): activated
- PGE2 production, COX-2 and MMP-9 protein expression, iNOS activity ([3]; sulforaphane 50 mg/kg): significantly inhibited
- LDH activity, wet-to-dry ratio of the lungs, serum IL-6 and TNF-α, nuclear factor-κB protein expression ([3]; sulforaphane 50 mg/kg, LPS 5 mg/kg 3 days later): significantly decreased

Compound: CC1=CC(=O)C(C(C)C)=CC1=O [thymoquinone]
- concentration of IL-1α ([4]; 0.75 mg/kg dose): 310.8 ± 70.93 pg/mL
- IL-10 levels ([4]; 0.75 mg/kg, controls 5505.2 ±333.96): 2885.0 ± 553.98 pg/mL
- concentration of IL-1α ([4]; 1 mg/kg group): 428.3 ± 71.32 pg/mL
- levels of TNF-α and IL-2 ([4]; P values=0.1817 and 0.0851): relatively lower levels
- renal and hepatic biomarker profiles ([4]; septic mice): improved
- reduction of mortality ([4]; septic mice, thymoquinone intraperitoneal): 80-90%
- lipopolysaccharide-induced inflammatory reactions [5]: suppressed effectively
- concentration of nitric oxide ([5]; marker of inflammation): reduced significantly

Compound: Epigallocatechin-3-gallate [EGCG]
- activation of nuclear factor-kappaB [6]: blocked
- myocardial damage and myeloperoxidase activity [7]: reduced
- plasma IL-6 and creatine phosphokinase levels [7]: decreased
- lethal sepsis ([8]; first dose given 24 hours after cecal ligation and puncture): rescued
- lethal endotoxemia ([8]; intraperitoneal administration): protected
- survival [9]: significantly improved
- TNF-α-induced downregulation of ABCA1 and decrease in cholesterol efflux to apoA1 [10]: attenuated
- expression of IκB-α ([11]; EGCG 10 mg/kg ip): increased
- expression of TLR-4, MyD88, TRIF and p-p65 in the lung tissue ([11]; EGCG 10 mg/kg ip): alleviated
- expression of TNF-α, IL-1β and IL-6 in the lung, serum and bronchoalveolar lavage fluid ([11]; EGCG 10 mg/kg ip): significantly decreased
- expression of p65 ([11]; EGCG 10 mg/kg ip): no influence
- LPS-induced ARDS (blood gases, histological lesions, wet-to-dry weight ratios, MPO activity) ([11]; EGCG 10 mg/kg ip 1 h before LPS 10 mg/kg ip): attenuated
- disease activity index (DAI) and spleen index (SI) ([12]; 50 and 100 mg/kg/day, compared with the MD group): decreased
- HIF-1α and STAT3 protein expression in the colon ([12]; mouse, in vivo): decreasing
- plasma levels of IL-10 and TGF-β1 ([12]; mouse, in vivo): increasing
- release of IL-6 and IL-17 ([12]; plasma): reduce
- hypotension [13]: significantly improved
